Consider five substances from patent publication US20220033448A1, “METHODS FOR AGGREGATION OF PROTEINS” (priority 2011, published 2022).

The MIC is the least concentration at which growth counts as inhibited. A higher MIC goes with weaker potency.

One data set concerns Candida albicans SC5314. Briefly: In vitro mature C. albicans biofilm formation on polystyrene (XTT reduction assay). Particulars: 250 μM, 50 μM and 10 μM; peptide during adhesion only or during whole biofilm development; p<0.001. The format is cell-based. On the procedure:
The initial screening and search for optimal Als3 candidate interferors was based on the C. albicans SC5314 adhesion assay on 96-well polystyrene plates upon administration of all the peptides at three different concentrations (250 μM, 50 μM and 10 μM). Based on the results obtained with this adhesion assay, we also tested the effect of peptides on mature biofilm development. The final election of the most optimal candidate interferor peptides was based on the results showing reduction in adhesion and mature biofilm formation caused by the lowest concentration of the peptide tested (10 μM or 2.5 μM).
In a next step, lower concentrations of peptide F9 (50 μM, 10 μM and 2.5 μM) were also tested. […] Both assays were performed in 96-well polystyrene plates and quantified by the XTT reduction assay (see material and methods section).
In vitro C. albicans biofilm was studied on three different types of biomaterials, namely flat bottom 96-well polystyrene plate (Greiner Bio-One, Germany), silicone (CS Hyde, USA) and polyurethane triple lumen intravenous catheters (2.4mm diameter) (Arrow International Reading, USA). […] After that, the biofilms were washed twice with 1×PBS and quantified.
The metabolic activity of Candida cells within in vitro biofilms was studied using the XTT reduction assay. […] The intensity of colorimetric change was measured by spectrophotometer (Spectra max Plus 384) at 490 nm. […]
Background: Formazan colour is commonly taken as a measure of viable cells.

The test system of another data set is human erythrocytes. It counts as cell-based. From the text: The detergent Tween was used as a positive control, causing 100% lysis of RBCs.
The subject of another data set is S. aureus ATCC 27853. As to the kind of experiment: Invasion assay: bacteria in infected HCT116 cell monolayers (CFU count). Particulars: 100 μg/ml, 90 minutes infection, 1 h treatment. The format is cell-based. The method, then: In this assay HCT116 cell monolayers (a human colon tumor cell line) were cultured at the bottom of a microwell plate. The next day fresh S. aureus ATCC 27853 bacteria were added (approximately 10^6 CFU/ml) and a negative uninfected control included. After 90 minutes of infection different dilution of peptides were added and the cultures were incubated for another hour. As a positive control Gentamycin was used, given that it has a good intracellular activity. Each well was washed with pre-warmed physiological water to get rid of any extra-cellular bacteria, followed by 1% Triton treatment to release all entrapped bacteria from mammalian cells. The content of the well was serially diluted and plated on TSA agar plates for CFU count.

For the next data set, the system named is Corynebacterium. The note with it: peptides with purity of >95%.
A further data set has as its system EGFR family. As to the kind of experiment: EGF-induced ERK1/2 phosphorylation in HeLa cells (cross reactivity of VEGFR2 peptides). It counts as cell-based, human. Particulars: EGF 25 ng/ml. The method, then: As a next step, to test the specificity of the VEGFR2 peptides, we tested their cross reactivity towards the EGFR family. Therefore, HeLa cells were treated with peptide B8 and B12 and subsequently stimulated with EGF (25ng/ml).

For another data set, the target named is T1, mVEGFR2 (Mus musculus, UniProt P35918).
T1 construct: expressed in transfected cells; host or cells: HEK293
T1 sequence (P35918 20-1345): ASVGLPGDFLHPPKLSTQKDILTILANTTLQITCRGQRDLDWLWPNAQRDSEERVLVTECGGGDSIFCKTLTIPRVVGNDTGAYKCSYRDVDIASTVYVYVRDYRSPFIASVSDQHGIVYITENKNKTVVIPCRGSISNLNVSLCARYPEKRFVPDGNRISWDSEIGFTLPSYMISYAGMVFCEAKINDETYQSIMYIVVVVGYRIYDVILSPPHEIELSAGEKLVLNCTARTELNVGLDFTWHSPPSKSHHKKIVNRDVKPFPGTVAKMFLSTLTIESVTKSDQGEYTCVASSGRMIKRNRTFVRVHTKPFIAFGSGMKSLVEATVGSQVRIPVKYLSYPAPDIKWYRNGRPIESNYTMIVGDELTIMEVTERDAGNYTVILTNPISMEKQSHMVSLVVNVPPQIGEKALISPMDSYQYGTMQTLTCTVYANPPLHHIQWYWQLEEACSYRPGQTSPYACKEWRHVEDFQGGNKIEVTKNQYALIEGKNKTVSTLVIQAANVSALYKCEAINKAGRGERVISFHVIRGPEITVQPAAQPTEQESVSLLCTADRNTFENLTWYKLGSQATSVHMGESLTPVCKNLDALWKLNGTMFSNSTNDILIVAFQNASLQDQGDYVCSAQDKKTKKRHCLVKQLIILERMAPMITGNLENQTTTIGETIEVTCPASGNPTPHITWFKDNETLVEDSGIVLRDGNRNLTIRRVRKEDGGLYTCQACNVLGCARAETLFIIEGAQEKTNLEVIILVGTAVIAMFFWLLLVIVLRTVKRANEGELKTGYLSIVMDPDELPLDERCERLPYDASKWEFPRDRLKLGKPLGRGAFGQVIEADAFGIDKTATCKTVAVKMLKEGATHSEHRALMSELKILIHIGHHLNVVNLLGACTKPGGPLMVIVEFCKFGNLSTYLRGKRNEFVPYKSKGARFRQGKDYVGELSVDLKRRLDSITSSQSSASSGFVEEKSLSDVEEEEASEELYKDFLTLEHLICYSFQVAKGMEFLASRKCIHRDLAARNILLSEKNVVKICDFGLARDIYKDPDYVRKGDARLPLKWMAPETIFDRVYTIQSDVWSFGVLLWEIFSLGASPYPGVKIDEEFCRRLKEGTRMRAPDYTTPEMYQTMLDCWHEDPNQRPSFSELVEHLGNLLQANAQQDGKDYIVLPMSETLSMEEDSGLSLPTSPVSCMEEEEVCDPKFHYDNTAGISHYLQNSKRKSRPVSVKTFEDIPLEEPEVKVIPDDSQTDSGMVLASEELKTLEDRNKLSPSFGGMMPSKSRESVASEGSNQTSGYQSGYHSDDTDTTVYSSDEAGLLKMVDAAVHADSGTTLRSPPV
As to the kind of experiment: Immunohistochemical staining of mVEGFR2 in HEK293 cells (cellular localization). The format is cell-based. The note with it: 10 μM, overnight treatment. On the procedure: To better understand the cellular mechanism of peptide inhibition, a preliminary experiment was performed in which cells were stained with an anti-VEGFR2 antibody to track the cellular localization.

For data set [1], the target named is T2, β-Gal (Escherichia coli, UniProt P00722). Particulars: 3-state model; 25° C.; 0-4 μM peptide. On the procedure: In this in vitro experiment the affinity of different interferor peptides was measured for binding to β-gal by means of surface plasmon resonance (SPR). SPR experiments were performed at 25° C. using a Biacore T100 equipped with CM5 sensor chip (GE Healthcare.). Coupling reagents (N-ethyl-N′-(3-dimethylaminopropyl)carbodiimide (EDC), N-hydroxysuccinimide (NHS) and ethanolamine-HCI) were purchased from GE Healthcare. BSA and β-gal were purchased from Sigma-Aldrich and Roche Diagnostics, respectively. […] The proteins BSA and β-Gal were immobilized respectively, in the reference and sample channels on a CM5 sensor chip by standard amine coupling chemistry at a flow of 10 μl min^−1. The carboxymethyl dextran surface was activated by the injection of a 1:1 ratio of EDC and NHS for 7 minutes. The proteins were diluted in 10 mM sodium-acetate buffer, pH 4.5 to a final concentration of 0.2 mg m1^−1 and injected in short pulses over the activated surface until the immobilization levels reached 4000 RU or 8000 RU, for BSA and β-Gal, respectively. The remaining reactive groups were blocked with 1 M ethanolamine, pH 8. After completion of coupling, the surface was regenerated with short pulses of 50 mM NaOH and 8 M urea to remove non-covalently attached proteins. […] The peptides, dissolved in the running buffer (10 mM sodium phosphate, pH 6.8, 150 mM NaCI, 3 mM EDTA and 0.015% Tween 20) at a concentration of 1 μM, were injected for 60 s at a flow rate of 30 μl min^−1 and then allowed to dissociate for 600 s. The injection was repeated on the same surface as well as on independently immobilized surfaces. The surface was regenerated between each cycle by 30 s pulses of i) 50 mM NaOH, and ii) 8 M urea, and was allowed to stabilize for 400 s before the next cycle.
T2 sequence (P00722 2-1024 with the stated changes limits assumed): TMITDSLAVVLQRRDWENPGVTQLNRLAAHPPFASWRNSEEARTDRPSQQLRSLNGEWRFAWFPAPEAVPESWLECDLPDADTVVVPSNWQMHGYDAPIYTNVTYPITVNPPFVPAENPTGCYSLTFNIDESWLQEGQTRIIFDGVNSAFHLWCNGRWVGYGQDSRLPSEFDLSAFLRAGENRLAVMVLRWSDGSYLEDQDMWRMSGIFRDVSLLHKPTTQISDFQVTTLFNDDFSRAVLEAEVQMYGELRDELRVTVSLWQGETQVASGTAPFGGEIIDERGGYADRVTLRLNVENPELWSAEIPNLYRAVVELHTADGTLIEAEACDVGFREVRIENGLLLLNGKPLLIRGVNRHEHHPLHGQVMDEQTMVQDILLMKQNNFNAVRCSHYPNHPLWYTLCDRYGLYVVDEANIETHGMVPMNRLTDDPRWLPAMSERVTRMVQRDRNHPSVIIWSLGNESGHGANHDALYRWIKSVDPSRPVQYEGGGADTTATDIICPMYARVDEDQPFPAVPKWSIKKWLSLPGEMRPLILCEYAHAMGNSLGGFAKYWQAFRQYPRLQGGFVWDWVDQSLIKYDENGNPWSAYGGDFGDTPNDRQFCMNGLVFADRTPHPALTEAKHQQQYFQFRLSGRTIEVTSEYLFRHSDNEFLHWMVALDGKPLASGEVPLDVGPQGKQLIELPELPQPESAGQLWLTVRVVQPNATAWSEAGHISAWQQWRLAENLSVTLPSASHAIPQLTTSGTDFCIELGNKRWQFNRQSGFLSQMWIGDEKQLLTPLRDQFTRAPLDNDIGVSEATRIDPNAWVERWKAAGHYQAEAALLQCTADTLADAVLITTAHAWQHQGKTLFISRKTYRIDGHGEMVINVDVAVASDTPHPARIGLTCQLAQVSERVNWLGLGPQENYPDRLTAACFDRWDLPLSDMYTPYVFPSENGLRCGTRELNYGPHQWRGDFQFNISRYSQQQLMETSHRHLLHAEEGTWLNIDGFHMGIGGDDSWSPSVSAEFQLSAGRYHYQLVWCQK
The peptide dissolved in the running buffer was injected for 60 s at a flow-rate of 301.11min′ over the reference (BSA) and sample (β-Gal) surfaces in a range of concentrations (0-4 μM, with one internal replicate) and were then allowed to dissociate for 600 s. The concentration series were repeated on the same surface (three times) as well as on independently immobilized surfaces. The surface was regenerated between each cycle by 30 s pulses of i) 50 mM NaOH, and ii) 8 M urea, and was allowed to stabilize for 400 s before the next cycle.
The data were globally fitted to a three-state model, using the Biacore T100 software, assuming an initial encounter between the peptide in solution and the protein on the chip followed by a two-step rearrangement before an identical binding site becomes available at the growing β-sheet.

For data set [2], the target named is T2, β-Gal. Particulars: equimolar concentrations of enzyme and interferor (10 μM).
Experimental: Enzyme functional readout was performed using the substrate fluorescein-di-I3-D-galactopyranoside (FDG), which is non-fluorescent but on enzymatic cleavage by β-Gal fluorescent fluorescein is liberated with intensity proportional to the catalytic activity.

No end group written: not given here.

Experimental for S. epidermidis: Bacteria were grown in a shaking incubator at 37° C. and 160rpm in 50 ml BHI , using individual colonies retrieved from a fresh overnight TSA-sheep blood plate. The cultures were grown to a density of approximately 1×10^8cells/ml and then diluted to 5×10^5 cells/ml in CAMHB (Mc Farland 0.5). Each well contained 100p.I (50p.I of peptide containing MHB plus 50 μl inoculum). The final cell density was 1×10^5 to 5×10^5/ml. After addition of the cell suspension, plates were incubated at 37° C. for 18 to 24 hours. The optical density at 590 nm (OD590) of each well was measured after 5 seconds of shaking the plate using Perkin Elmer spectrophotometer (1420 Multilabel Counter Vicotr 3). […] Each well, where no growth was observed, was also plated on TSA-sheep blood agar plates, incubated at 37° C. overnight and visually inspected.
A microbroth dilution method was used with twofold serial dilutions in CAMHB (according to EMEA guidelines) was used for screening of peptide activity, with concentrations ranging from 0.3 μg/mIto 200 μg/ml.

In the case of RNGIVIVATTR [E1], the “biofilm formation (metabolic activity compared to control)” value with Candida albicans SC5314 is “significant reduction in biofilm formation”.

For RFFIGLSRRGSRLFNFLKR [Hit57A], the hemolytic activity result in the data set with human erythrocytes was “no significant hemolytic activity at clinically relevant concentrations”. The “numbers of bacteria in infected cell monolayers” value in the data set on S. aureus ATCC 27853 was “effectively reduced the numbers of bacteria in infected cell monolayers”. In the data set with S. aureus, the MIC was 50 µg/mL, the “MIC in presence of 50% FBS” value amounted to 100 µg/mL and the “MIC values against MRSA 326” value amounted to 6 µg/mL. Also, the “MIC values against Corynebacterium” value with Corynebacterium was “Not active”.

For the substance DLAVALWFDPPDLAVALWFD [B8], in the data set on EGFR family, the “ERK1/2 phosphorylation after EGF stimulation” value is “do not inhibit ERK1/2 phosphorylation”. Besides, the “cellular localization of VEGFR2” value with mVEGFR2 is on record as “no longer present on the cell surface”.

As to (His)6~RVIIWSLGNR [Tango 2 peptide], at β-Gal [1], the ka1 was determined as 2.744E+4, the “ka1 (second value printed)” value was 0.02359, the ka3 amounted to 0.005491 and the kd1 is recorded as 0.4123. At β-Gal [1], the kd2 is 0.02509 and the kd3 was determined as 0.002654. Besides, the “enzymatic activity of β-galactosidase” value at β-Gal [2] is recorded as “complete inhibition of enzymatic activity”.

RRLFNFLKRGSRLFNFLKR [Hit24]: the hemolytic activity result in the data set with human erythrocytes is on record as “no significant hemolytic activity at clinically relevant concentrations”. Besides, in the data set on S. aureus, the “MIC values against S.aureus ATCC 29213” value was 12.5 µg/mL. Moreover, in the data set with S. epidermidis, the “MIC values against S.epidermidis ATCC 12228” value was 1.5 µg/mL. In the data set on E. cloacae, this substance gave a minimal inhibitory concentration (MIC) of 25 µg/mL.
